Test results published in patent US8624027B2, “Combination therapy for treating cancer and diagnostic assays for use therein” (AbbVie Inc., priority 2005, dated 2014).

Assays:
[1] = tested on: NCI-H146 human small cell lung carcinoma cells; assay: Cellular efficacy in human tumor cell line (MTS viability assay); assay type: cell-based; conditions: NCI-H146; 10% human serum, 48 hours; Table 1; read-out: NCI-H146 Cellular Efficacy EC50
Summary of the method: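 Cells plated at 50,000/well in medium with 10% human serum in place of FBS. Treated with 2-fold serial dilutions from 10 μM to 0.020 μM, in duplicate, at least 3 separate runs. Viable cells measured by MTS after 48 h of compound exposure.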

B-cell lymphoma = assay: Oral efficacy of EXAMPLE 1 in combination therapy, antitumorigenesis on B-cell lymphoma; assay type: in vivo
[2] = Pharmacokinetic evaluation in rat; assay type: in vivo; conditions: male, Sprague-Dawley, plasma, single 5 mg/kg oral dose, Table 1, read-out: Pharmacokinetic area under the plasma concentration Curve (rat) AUC0-∞
Summary of the method: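 Male Sprague-Dawley rats (n=3/group) received a single 2 mg/kg IV (jugular slow bolus) or 5 mg/kg oral gavage dose in 10% DMSO/PEG-400; tail-vein plasma sampled to 24 h. Acetonitrile-precipitated plasma quantified by LC-MS/MS (LOQ 0.01 μg/mL); AUC0-∞ by linear trapezoidal rule plus Ct/β extrapolation.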

BAX and BAK = BAX and BAK activation, immunoprecipitation of active conformers; assay type: cell-based, human; conditions: HCT116, D54MG, SW620, EJ1 cells made polyploid with 200 nM AZD1152 72 hours, then 1 μM ABT-263
Procedure: HCT116 cells (FIG. 11A) were treated with DMSO or 200 nM AZD1152 for 72 hours followed by 2 hours with 1 μM ABT-263. Conformationally active BAK or BAX was immunoprecipitated and detected by immunoblotting. D54MG and HCT116 cells (FIG. 11B) were treated DMSO or 200 nM AZD1152 for 72 hours prior to the addition of 1 μM ABT-263 for 4 hours. Conformationally active BAK or BAX was immunoprecipitated and detected by immunoblotting (top and middle panel). Cell lysates were also fractionated and Cytochrome C release into the cytosolic fraction was detected by immunoblotting. HCT116, SW620, and D54MG cells (FIG. 11C) were treated with DMSO (untreated) or 200 nM AZD1152 (AZD1152) for 72 hours and the expression of Bcl-2 network components were detected by immunoblotting (FIG. 11D-FIG. 11E) HCT116 cells were treated as in FIG. 11B. Endogenous Bcl-XL and Mcl-1 were immunoprecipitated, and the Bcl-2 network components in the immunecomplexes were detected by immunoblotting.
FIG. 14 BAK and BAX activation in tumor cell lines. D54MG, SW620, and EJ1 cells were treated as in FIG. 17B. Conformationally active BAK and BAX was immunoprecipitated and detected by immunoblotting.
Cell lysates were either prepared using a CHAPS lysis buffer (10 mM HEPES, pH 7.4, 150 mM NaCl, 1% CHAPS) or a cell extraction buffer containing 1% Triton X-100, 0.1% SDS, and 0.5% deoxycholate (Invitrogen). […]

mantle cell lymphoma = assay: Oral efficacy of EXAMPLE 1 in combination therapy, antitumorigenesis on mantle cell lymphoma; assay type: in vivo

For CC1(C)CCC(c2ccc(Cl)cc2)=C(CN2CCN(c3ccc(C(=O)NS(=O)(=O)c4ccc(N[C@H](CCN5CCOCC5)CSc5ccccc5)c(S(=O)(=O)C(F)(F)F)c4)cc3)CC2)C1 [Example 1, N-(4-(4-((2-(4-chlorophenyl)-5,5-dimethyl-1-cyclohex-1-en-1-yl)methyl)piperazin-1-yl)benzoyl)-4-(((1R)-3-(morpholin-4-yl)-1-((phenylsulfanyl)methyl)propyl)amino)-3-((trifluoromethyl)sulfonyl)benzenesulfonamide], the EC50 [1] was 89.1 nM, the “efficacy of cytotoxic agents during combination therapy” value (B-cell lymphoma; EXAMPLE 1 orally with etoposide, vincristine, CHOP, rituximab, rapamycin) was “synergistically enhanced efficacy” and the complete tumor regression (B-cell lymphoma; combination of EXAMPLE 1 and rapamycin) was 70%. For the same compound, the complete tumor regression (B-cell lymphoma; combination of EXAMPLE 1 and rituximab) was 70%, the complete tumor regression (B-cell lymphoma; combination of EXAMPLE 1 and vincristine) was 10% and the AUC(0-inf) [2] was 5.01 µM·h. For the same compound, the “BAX and BAK activation in polyploid cells” value (BAX and BAK) was “rapidly and synergistically induced BAX and BAK activation”, the “efficacy of cytotoxic agents during combination therapy” value (mantle cell lymphoma; EXAMPLE 1 orally with rituximab with CHOP, VELCADE) was “synergistically enhanced efficacy” and the complete tumor regression (mantle cell lymphoma; combination of EXAMPLE 1 and bortexomib) was 10%. It also gave a complete tumor regression (mantle cell lymphoma; combination of EXAMPLE 1 and rituximab with CHOP) of 90%.
